Test results: US20130072523A1, “ANALOGUES FOR THE TREATMENT OR PREVENTION OF FLAVIVIRUS INFECTIONS” (VERTEX PHARMACEUTICALS INCORPORATED, priority 2009, published 2013)

Columns and labels:
[1] = tested on: sub-genomic HCV replicon of genotype 1a; assay: Activity determination using the ELISA and the sub-genomic replicon 1a cell line (NS5A protein level, W11.8 cells); format: cell-based; conditions: Hepatitis C virus, W11.8, 96 h, drug treatment for four days
Excerpt: Activity Determination Using the ELISA and the Sub-Genomic Replicon 1a Cell Line
The cell line W11.8 containing the sub-genomic HCV replicon of genotype 1a is used to determine the potency of the drugs. The RNA replication in presence of different drug concentrations is indirectly measured in this cell line by the level of NS5A protein content upon drug treatment for four days. It is shown that the level of the NS5A protein correlates well with the level of HCV RNA in the replicon cell line. Cells are split twice a week in order to keep the confluence state below 85% of the culture flask surface area. The culture media used for cell passaging consists of DMEM-10% foetal bovine serum with 100 UI/mL penicillin, 100 μg/mL streptomycin, 2 mM glutamine, 1 mM sodium pyruvate, non-essential amino acids (1×) and 600 μg/mL of G418 final concentrations. Monolayer of the W11.8 cells is trypsinized and cells are counted. Cells are diluted at 50,000 cells/mL with complete DMEM without G418, then approximately 5,000 viable cells (100 μL) are plated per well in a white opaque 96-well microtiter plate. After an incubation period of 2-4 hours at 37° C. in a 5% CO2 incubator, compounds are added at various concentrations. Drugs are resuspended in DMSO at a stock concentration of 10 mM. Then, drugs are serially diluted at twice the final concentration in the same medium. One volume (100 μL) of each drug dilution is then added to each well that contains cells.
A control compound is used as an internal standard for each plate assay. Sixteen wells are used as control (0% inhibition) without drug. […] Values from 100% inhibited wells were averaged and used as the background value. Cells are further incubated for four days at 37° C. in a 5% CO2 incubator. Following the incubation time of four days, the media is removed and wells are washed once with 150 μL of PBS at room temperature for five minutes. Cells are then fixed for five minutes using 150 μL per well of cold (−20° C.) fixative solution (50% methanol/50% acetone mix). Cells are then washed twice with 150 μL of PBS (phosphate buffered saline) per well, following the addition of 150 μL of blocking solution, cells are incubated for one hour at 37° C. to block non-specific sites. The blocking solution is removed and cells are washed twice with 150 μL of PBS per well and once with 150 μL of PBSTS solution (PBS/0.1% Triton X-100/0.02% SDS) per well. Then, 50 μL of mouse monoclonal anti-NS5A antibody (Santa Cruz, Cat. No. sc-52417) is added in each well, diluted 1/1,000 in the blocking solution and incubated at 4° C. overnight. Next day, media is removed and plates are washed five times with 150 μL of PBS per well with five-minute incubations at room temperature. Then 50 μL per well of peroxidase-conjugated donkey anti-mouse antibody (Jackson Immunoresearch, Cat. No. 715-036-150) diluted 1/10,000 in the blocking solution is added and incubated at room temperature for three hours on a shaker (500 rpm). Plates are washed four times with 150 μL of PBSTS solution per well and once with 150 μL of PBS. Then, substrate solution (100 μl, SuperSignal ELISA Pico Chemiluminescent Substrate, Fisher Cat. No. 37069) is added in each well and plates are incubated 60 minutes at room temperature prior to reading the luminescence (relative light units) on the Analyst HT plate reader. The percentage of inhibition at each drug concentration tested (in duplicate) is calculated. […]

HCV 1b genotype = assay: Cell-based luciferase reporter HCV (Ib) RNA replication assay (Huh-ET replicon cells); conditions: Hepatitis C virus, 96 h; HCV 1b genotype replicon, 4 days incubation, luciferase readout
Excerpt: Cell-Based Luciferase Reporter HCV (Ib) RNA Replication Assay Cell Culture
Replicon cell lines Huh-5.2 are derived from the Huh-7 hepatocarcinoma cell line are maintained in culture as generally described in Krieger, N; Lohmann, V; Bartenschlager, R. Enhancement of hepatitis C virus RNA replication by cell culture-adaptive mutations. J. Virol. 2001, 75, 4614-4624. The Huh-5.2 cells contain the highly cell culture-adapted replicon I389 Luc-ubi-neo/NS3-375.1 construct that carries, in addition to the neomycin gene, an integrated copy to the firefly luciferase gene (Krieger, N; Lohmann, V; Bartenschlager, R. Enhancement of hepatitis C virus RNA replication by cell culture-adaptive mutations. J. Virol. 2001, 75, 4614-4624). This cell line allows measurement of HCV RNA replication and translation by measuring luciferase activity. It has been previously shown that the luciferase activity tightly follows the replicon RNA level in these cells (Krieger, N; Lohmann, V; Bartenschlager, R. Enhancement of hepatitis C virus RNA replication by cell culture-adaptive mutations. J. Virol. 2001, 75, 4614-4624). The Huh-ET cell line has the same features as those mentioned for Huh-5.2 cell line, except that ET cells are more robust and contain an adaptative mutation in the HCV NS4B gene instead of NS5A. Both cell lines are maintained in cultures at a sub-confluent level (<85%) as the level of replicon RNA is highest in actively proliferating cells. The culture media used for cell passaging consist of DMEM (Gibco BRL Laboratories, Mississauga, ON, Canada) supplemented with 10% foetal bovine serum with 1% penicilin/streptomycin, 1% glutamine, 1% sodium pyruvate, 1% non-essential amino acids, and 180 μg/ml of G418 final concentration. Cells are incubated at 37° C., in an atmosphere of 5% CO2 and passaged twice a week to maintain sub-confluence.
Approximately 3000 viable Huh-ET cells (100 μl) are plated per well in a white opaque 96-well microtiter plate. The cell culture media used for the assay is the same as described above except that it contains no G418 and no phenol red. After an incubation period of 3-4 hours at 37° C. in a 5% CO2 incubator, compounds (100 μl) are added at various concentrations. Cells are then further incubated for 4 days at 37° C. in a 5% CO2 incubator. Thereafter, the culture media is removed and cells are lysed by the addition of 95 μL of the luciferase buffer (luciferin substrate in buffered detergent). Cell lysates are incubated at room temperature and protected from direct light for at least 10 minutes. Plates are read for luciferase counts using a luminometer (Wallac MicroBeta Trilux, Perkin Elmer™, MA, USA).
The 50% inhibitory concentrations (IC50s) for inhibitory effect are determined from dose response curves using eleven concentrations per compound in duplicate. Curves are fitted to data points using nonlinear regression analysis, and IC50s are interpolated from the resulting curve using GraphPad Prism software, version 2.0 (GraphPad Software Inc., San Diego, Calif., USA).
EC50 ranges are presented in micromolar as follows: μM+++<=0.005<++<=5.0<+.

SMILES | IC50 [1] | IC50 (HCV 1b genotype)
COC(=O)N[C@H](C(=O)N1CCC[C@H]1c1ncc(C#Cc2ccc(C#Cc3cnc([C@@H]4CCCN4C(=O)[C@@H](NC(=O)OC)C(C)C)[nH]3)cc2)[nH]1)C(C)C | 4.8 nM | –
COC(=O)N[C@H](C(=O)N1C[C@@H](C)C[C@H]1c1ncc(-c2ccc(-c3ccc(-c4cnc([C@@H]5C[C@H](C)CN5C(=O)[C@@H](NC(=O)OC)C(C)C)[nH]4)cc3)cc2)[nH]1)C(C)C [Compound 1] | 0.017 nM | ≤ 5 nM
COC(=O)N[C@H](C(=O)N1C[C@@H](C)C[C@H]1c1ncc(C#Cc2ccc(C#Cc3cnc([C@@H]4C[C@H](C)CN4C(=O)[C@@H](NC(=O)OC)C(C)C)[nH]3)cc2)[nH]1)C(C)C [Compound 4] | 0.055 nM | ≤ 5 nM
COC(=O)N[C@H](C(=O)N1CCC[C@H]1c1ncc(-c2ccc(-c3ccc(-c4cnc([C@@H]5CCCN5C(=O)[C@@H](NC(=O)OC)C(C)C)[nH]4)cc3)cc2)[nH]1)C(C)C | 0.05 nM | –
COC(=O)N[C@H](C(=O)N1C[C@@H](C)C[C@H]1c1nc(C#Cc2ccc(C#Cc3c[nH]c([C@@H]4C[C@H](C)CN4C(=O)[C@@H](NC(=O)OC)C(C)C)n3)c(Cl)c2)c[nH]1)C(C)C [Compound 63] | – | ≤ 5 nM
COC(=O)N[C@H](C(=O)N1C[C@@H](C)C[C@H]1c1nc(C#Cc2ccc3cc(C#Cc4c[nH]c([C@@H]5C[C@H](C)CN5C(=O)[C@@H](NC(=O)OC)C(C)C)n4)ccc3c2)c[nH]1)C(C)C [Compound 6] | – | ≤ 5 nM
COC(=O)N[C@H](C(=O)N1CCC[C@H]1c1nc(C)c(C#Cc2ccc(C#Cc3[nH]c([C@@H]4CCCN4C(=O)[C@@H](NC(=O)OC)C(C)C)nc3C)cc2)[nH]1)C(C)C [Compound 19] | – | ≤ 5 nM
COC(=O)N[C@H](C(=O)N1CCC[C@H]1c1nc(C#Cc2ccc(C#Cc3c[nH]c([C@@H]4CCCN4C(=O)[C@@H](NC(=O)OC)C(C)C)n3)c3ocnc23)c[nH]1)C(C)C [Compound 13] | – | ≤ 5 nM
COC(=O)N[C@H](C(=O)N1C[C@@H](C)C[C@H]1c1nc(C)c(C#Cc2ccc(C#Cc3[nH]c([C@@H]4C[C@H](C)CN4C(=O)[C@@H](NC(=O)OC)C(C)C)nc3C)c(F)c2)[nH]1)C(C)C [Compound 31] | – | ≤ 5 nM
COC(=O)N[C@H](C(=O)N1C[C@@H](C)C[C@H]1c1ncc(C#Cc2ccc(C#Cc3cnc([C@@H]4C[C@H](C)CN4C(=O)OC(C)(C)C)[nH]3)cc2)[nH]1)C(C)C [Compound 54] | – | ≤ 5 nM
COC(=O)N[C@H](C(=O)N1C[C@@H](C)C[C@H]1c1ncc(C#Cc2ccc(C#Cc3cnc([C@@H]4C[C@H](C)CN4C(=O)[C@@H](NC(=O)OC)C(C)C)[nH]3)c3c2OC(F)(F)O3)[nH]1)C(C)C [Compound 45] | – | ≤ 5 nM
COC(=O)N[C@H](C(=O)N1C[C@@H](C)C[C@H]1c1ncc(C#Cc2ccc(C#Cc3cnc([C@@H]4C[C@H](C)CN4C(=O)[C@@H](NC(=O)OC)C(C)C)[nH]3)nc2)[nH]1)C(C)C [Compound 56] | – | ≤ 5 nM
COC(=O)N[C@H](C(=O)N1[C@@H](C)CC[C@H]1c1ncc(C#Cc2ccc(C#Cc3cnc([C@@H]4CC[C@H](C)N4C(=O)[C@@H](NC(=O)OC)C(C)C)[nH]3)cc2)[nH]1)C(C)C [drawing 272] | 0.24 nM | –
COC(=O)N[C@H](C(=O)N1C[C@@H](C)C[C@@H]1c1ncc(C#Cc2ccc(C#Cc3cnc([C@@H]4C[C@@H](C)CN4C(=O)[C@@H](NC(=O)OC)C(C)C)[nH]3)cc2)[nH]1)C(C)C [Compound 27] | – | 5 to 5000 nM
C[C@@H]1CN[C@H](c2ncc(C#Cc3ccc(C#Cc4cnc([C@@H]5C[C@H](C)CN5)[nH]4)cc3)[nH]2)C1 [Compound 24] | – | 5 to 5000 nM
COC(=O)N[C@H](C(=O)N1C[C@@H](C)C[C@H]1c1ncc(-c2ccc(-c3cc4sc(-c5cnc([C@@H]6C[C@H](C)CN6C(=O)[C@@H](NC(=O)OC)C(C)C)[nH]5)cc4s3)cc2)[nH]1)C(C)C [Compound 69] | – | ≤ 5 nM
COC(=O)N[C@H](C(=O)N1C[C@@H](C)C[C@H]1c1nc(C)c(C#Cc2cc(F)c(C#Cc3[nH]c([C@@H]4C[C@H](C)CN4C(=O)[C@@H](NC(=O)OC)C(C)C)nc3C)cc2F)[nH]1)C(C)C [Compound 29] | – | ≤ 5 nM
COC(=O)N[C@H](C(=O)N1[C@@H](C)CC[C@H]1c1ncc(C#Cc2ccc(C#Cc3cnc([C@@H]4CC[C@H](C)N4C(=O)[C@@H](NC(=O)OC)C(C)C)[nH]3)cc2)[nH]1)C(C)C [Example 42] | – | ≤ 5 nM
